Experimental data as given in the NIST ThermoML archive (doi:10.1016/j.jct.2006.08.011).

Experiments:
[1] = refractive index (Na D-line) (dimensionless); conditions: 298.15 K; 101.33 kPa; Liquid; Standard Abbe refractometry
[2] = 298.15 K; 101.33 kPa; Liquid
[3] = excess molar enthalpy (molar enthalpy of mixing); xn = mol fraction of the nth substance listed; conditions: 298.15 K, 101 kPa, Liquid
[4] = xn = mol fraction of the nth substance listed; conditions: 298.15 K, Liquid
[5] = refractive index (Na D-line) (dimensionless); xn = mol fraction of the nth substance listed; conditions: 298.15 K, 101.3 kPa, Liquid, Standard Abbe refractometry

Cc1ccccc1 [toluene]
Conditions | mass density [kg/m3] | refractive index
[1] | – | 1.4941
[2] | 862.11 | –

CCCOC(=O)CC [propyl propanoate]
Conditions | mass density [kg/m3] | refractive index
[1] | – | 1.3906
[2] | 875.48 | –

CCCCCC [hexane] + Cc1ccccc1
Conditions | excess molar enthalpy [kcal/mol] | refractive index
[3], x1 = 0.0525 | 0.0294 | –
[3], x1 = 0.0957 | 0.0507 | –
[3], x1 = 0.1586 | 0.0756 | –
[3], x1 = 0.2119 | 0.0935 | –
[3], x1 = 0.2672 | 0.109 | –
[3], x1 = 0.3135 | 0.118 | –
[3], x1 = 0.3766 | 0.126 | –
[3], x1 = 0.4264 | 0.13 | –
[3], x1 = 0.4723 | 0.131 | –
[3], x1 = 0.5414 | 0.128 | –
[3], x1 = 0.6641 | 0.115 | –
[3], x1 = 0.6927 | 0.109 | –
[3], x1 = 0.7484 | 0.0939 | –
[3], x1 = 0.8045 | 0.0779 | –
[3], x1 = 0.8657 | 0.0576 | –
[3], x1 = 0.9023 | 0.0438 | –
[5], x1 = 0.0543 | – | 1.486
[5], x1 = 0.0958 | – | 1.4801
[5], x1 = 0.1667 | – | 1.4701
[5], x1 = 0.2129 | – | 1.4637
[5], x1 = 0.2818 | – | 1.4541
[5], x1 = 0.3261 | – | 1.4482
[5], x1 = 0.3762 | – | 1.4417
[5], x1 = 0.4262 | – | 1.4353
[5], x1 = 0.4769 | – | 1.429
[5], x1 = 0.5136 | – | 1.4246
[5], x1 = 0.5742 | – | 1.4174
[5], x1 = 0.6327 | – | 1.4107
[5], x1 = 0.6862 | – | 1.4047
[5], x1 = 0.7402 | – | 1.3987
[5], x1 = 0.7958 | – | 1.3927
[5], x1 = 0.8548 | – | 1.3866
[5], x1 = 0.9106 | – | 1.381
[5], x1 = 0.9409 | – | 1.378

[4], 101 kPa
Conditions | mass density [kg/m3]
x1 = 0.0524 | 848.99
x1 = 0.0926 | 839.12
x1 = 0.1636 | 822.1
x1 = 0.2011 | 813.3
x1 = 0.2475 | 802.64
x1 = 0.3184 | 786.7
x1 = 0.4088 | 767.06
x1 = 0.4739 | 753.36
x1 = 0.5096 | 746
x1 = 0.5734 | 733.08
x1 = 0.6086 | 726.13
x1 = 0.6754 | 713.16
x1 = 0.7338 | 702.09
x1 = 0.7827 | 693.01
x1 = 0.8426 | 682.13
x1 = 0.9055 | 670.97
x1 = 0.9323 | 666.29

CCCOC(=O)CC [propyl propanoate] + Cc1ccccc1
Conditions | excess molar enthalpy [kcal/mol] | refractive index
[3], x1 = 0.0547 | -0.0102 | –
[3], x1 = 0.1357 | -0.0223 | –
[3], x1 = 0.1718 | -0.0263 | –
[3], x1 = 0.2389 | -0.0336 | –
[3], x1 = 0.2823 | -0.0365 | –
[3], x1 = 0.3263 | -0.0399 | –
[3], x1 = 0.3957 | -0.0421 | –
[3], x1 = 0.4277 | -0.0421 | –
[3], x1 = 0.5486 | -0.0378 | –
[3], x1 = 0.5841 | -0.0361 | –
[3], x1 = 0.6522 | -0.0328 | –
[3], x1 = 0.709 | -0.0293 | –
[3], x1 = 0.7394 | -0.0271 | –
[3], x1 = 0.8031 | -0.0228 | –
[3], x1 = 0.8568 | -0.0183 | –
[3], x1 = 0.892 | -0.0131 | –
[3], x1 = 0.9577 | -0.00583 | –
[5], x1 = 0.0625 | – | 1.4858
[5], x1 = 0.1072 | – | 1.4803
[5], x1 = 0.1826 | – | 1.4712
[5], x1 = 0.2232 | – | 1.4665
[5], x1 = 0.2747 | – | 1.4605
[5], x1 = 0.3426 | – | 1.4529
[5], x1 = 0.4514 | – | 1.4411
[5], x1 = 0.4907 | – | 1.437
[5], x1 = 0.5441 | – | 1.4316
[5], x1 = 0.5833 | – | 1.4277
[5], x1 = 0.6451 | – | 1.4218
[5], x1 = 0.7066 | – | 1.416
[5], x1 = 0.7346 | – | 1.4135
[5], x1 = 0.7898 | – | 1.4085
[5], x1 = 0.8508 | – | 1.4031
[5], x1 = 0.9037 | – | 1.3986
[5], x1 = 0.956 | – | 1.3942

[4], 101.3 kPa
Conditions | mass density [kg/m3]
x1 = 0.0625 | 863.5
x1 = 0.1072 | 864.46
x1 = 0.1826 | 865.94
x1 = 0.2232 | 866.69
x1 = 0.2747 | 867.57
x1 = 0.3426 | 868.66
x1 = 0.4514 | 870.21
x1 = 0.4907 | 870.73
x1 = 0.5441 | 871.41
x1 = 0.5833 | 871.86
x1 = 0.6451 | 872.53
x1 = 0.7066 | 873.14
x1 = 0.7346 | 873.41
x1 = 0.7898 | 873.9
x1 = 0.8508 | 874.42
x1 = 0.9037 | 874.81
x1 = 0.956 | 875.2

CCCCCC [hexane]
Conditions | mass density [kg/m3] | refractive index
[1] | – | 1.3723
[2] | 654.68 | –
